We go through 6 molecules from patent US6436908B1, “Use of exogenous β-adrenergic receptor and β-adrenergic receptor kinase gene constructs to enhance myocardial function” (Duke University, priority 1995, dated 2002).

Read-outs that look alike come from different tables or passages of the source.

For data set [1], the target named is T1, β1-AR (Mus musculus, UniProt P34971).
T1 construct: Sarcolemmal membranes were prepared from control mouse hearts; from tissue; host or cells: sarcolemmal membranes of control mouse hearts (A3), and of control and TGβK12 mouse hearts (A4)
In words: ICI 118,551 competition binding against [125I]cyanopindolol, control heart sarcolemmal membranes, low affinity component. The method, then: Myocardial sarcolemmal membranes were prepared by homogenizing whole hearts in ice-cold buffer A [50 mM HEPES (pH 7.3), 150 mM KCl, 5 mM EDTA]. Nuclei and tissue were separated by centrifugation at 800×g for 10 min and the crude supernatant was then centrifuged at 20,000×g for 10 min. The subsequent pellet was resuspended in buffer A and centrifuged at 20,000×g for 10 min. The final pellet was resuspended at a concentration of 2-3 mg protein per ml in buffer B [50 mM HEPES (pH7.3), 5 mM MgCl2].

In data set [2] the test system is left ventricular function. In words: LV dP/dtmax before and after systemic β2-AR antagonist. It is filed as in vivo, mouse. From the text:
FIG. 7. Effect of administering β-AR antagonist. […] Asterisks indicate p<0.05, paired Student's T-test.

Data set [3] has as its system adenylyl cyclase. It is filed as biochemical, mouse. The note with it: for NaF stimulated cyclase activity, mean (±SD): 10 mM NaF; for EC50: read-out: EC50 of isoproterenol-stimulated adenylyl cyclase activity. The method, then:
FIG. 4. Adenylyl Cyclase Activity. Membranes were prepared from TG4 hearts and nontransgenic litter mate control hearts as described in FIG. 2. […] Each point on the graph represents the mean±SEM of seven independent experiments each performed in duplicate.
The inotropic response resulting from myocardial β-AR stimulation is mediated through activation of adenylyl cyclase and the intracellular second messenger cAMP. To assess whether the myocardium of transgenic animals overexpressing β2-AR had enhanced adenylyl cyclase activity, myocardial membranes were incubated with [^32P]ATP and the rate of cAMP formation was measured.

Data set [4] relates to isolated atria. In words: Isometric tension development in isolated atria. The arrangement: species or system mouse. The note with it: TG4 atria, doses maximally stimulating controls. On the procedure:
FIGS. 5A-C. Baseline and maximally stimulated responses in isolated atria. Atria were suspended under optimal resting tension in modified Kreb's bicarbonate solution at 30° C. […]. Data are shown as the mean values±SEM for control animals (n=7 or 8) and TG4 animals (n=5 or 6). In all three responses, the baseline values for the TG4 animals were greater than the baseline in the control animals (* P<0.05 Student's t-test), but not different from either control isoproterenol-stimulated values or from TG4 isoproterenol-stimulated values.
To directly assess the effect of β2-AR overexpression on myocardial inotropy, isometric tension development was determined in isolated, perfused atria. […] In the left atria, basal tension was approximately three times that of the control levels. Baseline isometric tension in the transgenics was not different from the maximal isoproterenol-stimulated tension in control atria. […] To eliminate the possibility that this increased rate might be contributing to the increased tension measured in the transgenic myocardium, experiments were conducted to assess the relationship of rate to developed tension. From a rate of 240 to 360 beats/min. […] All atria studied were weighed, and no significant differences were noted between transgenic and control weights.

Data set [5] deals with left ventricular function. In words: In vivo assessment of left ventricular function, TG4 and control mice. Further details: species or system mouse.
For data set [6], the system named is left ventricular function. In words: In vivo assessment of left ventricular function, TGβK12 and TGMini27 mice. The arrangement: species or system mouse. As to conditions: for mean LV dP/dtmax (maximum contractility): 500 pg isoproterenol; for mean LV dP/dtmin (maximum LV relaxation): 1000 pg isoproterenol. On the procedure:
FIG. 12. In vivo assessment of left ventricular function of TGβK12 (n=10) and nontransgenic control mice (n=10). Animals were anesthetized and aortic and left ventricular catheters placed (28). […]; (B) LV dP/dtmin; (C) heart rate (HR); and (D) LV systolic pressure. Data are reported as means±SEM and were analyzed with a two way analysis of variance (ANOVA) with post hoc testing performed using Scheffe's F test (*, P<0.05). […]; (B) dP/dtmin, P<0.05; (C) HR, P<0.01 but not (D) LV systolic pressure, P=ns.
FIG. 13. In vivo assessment of left ventricular function of TGMini27 (n=7) and nontransgenic control mice (n=7). Mice were treated as in FIG. 4 (28) and four parameters are shown; (A) LV dP/dtmax,; (B) LV dP/dtmin; (C) HR; and (D) LV systolic pressure. Data are reported as mean±SEM and were analyzed as in FIG. 4 (*, P<0.05). […]; (B) dP/dtmin, P<0.005; and (D) LV systolic pressure, P<0.005.
Mice were anesthetized with a mixture of ketamine and xylazine (Milano et al., Science 264, 582 (1994)). A cervical incision was made, the trachea intubated and the animal connected to a volume-cycled ventilator. A carotid artery was then cannulated with a flamestretched PE 50 catheter connected to a modified P50 statham transducer. […]. Continuous pressures were recorded on an eight channel chart recorder and in digitized form on computer disk for beat averaging. Ten sequential beats were averaged for each measurement.

In data set [7] the target is Gβγ. In words: cell-based or functional assay.
For data set [8], the system named is βARK. In words: GRK activity of heart extracts, rhodopsin phosphorylation assay. In kind it is biochemical, mouse. The note with it: TGMini27 heart extracts, 50 μg protein, ~10 pmoles Gβγ, n=5.
The target of data set [9] is Gβγ.

T1 sequence (P34971 whole entry): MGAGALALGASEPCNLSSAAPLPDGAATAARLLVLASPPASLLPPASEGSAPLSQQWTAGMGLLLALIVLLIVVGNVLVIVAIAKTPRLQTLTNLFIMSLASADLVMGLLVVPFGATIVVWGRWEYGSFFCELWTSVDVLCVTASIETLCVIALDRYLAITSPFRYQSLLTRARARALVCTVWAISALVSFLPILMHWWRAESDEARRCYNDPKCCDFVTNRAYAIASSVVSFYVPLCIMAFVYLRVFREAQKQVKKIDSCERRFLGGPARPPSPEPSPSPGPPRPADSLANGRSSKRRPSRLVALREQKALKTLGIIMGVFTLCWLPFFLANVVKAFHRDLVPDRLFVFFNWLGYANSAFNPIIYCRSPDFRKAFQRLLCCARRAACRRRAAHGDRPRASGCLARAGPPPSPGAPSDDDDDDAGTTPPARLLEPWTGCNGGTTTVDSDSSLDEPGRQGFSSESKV

The Ki is a dissociation constant, usually derived from enzyme kinetics or from competition with a known ligand. Read a high Ki as a looser hold on the target. `Cc1ccc(OCC(O)C(C)NC(C)C)c2c1CCC2` (stereo not shown) [ICI 118,551]: the inhibition constant (Ki) in data set [1] worked out at 390 nM. For the same molecule, in data set [1] (75 nM ICI 118,551), the “effect on the β1-AR binding component” value is given as “insignificantly affecting”. Further, the “share of low affinity binding population (β1 subtype)” value in [1] (control mouse heart sarcolemmal membranes) was 75%. In data set [2] (TG4 transgenic mice, 5 μg systemic, four minutes after administration), the “change in elevated baseline LV dP/dtmax” value is “Marked decreases”. In addition, the “change in LV dP/dtmax” value in data set [2] (control animals) was “no significant change”.
`[F-].[Na+]` [NaF]: the “NaF stimulated cyclase activity, mean (±SD)” value was found to be 606.4±207.8 pmol cAMP/min/mg protein in data set [3] (control membranes) and 445.5±165.5 pmol cAMP/min/mg protein in data set [3] (transgenic (TG4) membranes).
Usually EC50 stands for the concentration needed to bring the measured effect to its halfway point. For the molecule `CC(C)NCC(O)c1ccc(O)c(O)c1` (stereo not shown) [isoproterenol], the EC50 in data set [3] (TG4 heart membranes) was determined as 22 nM; in data set [3] (nontransgenic control heart membranes), 160 nM. Moreover, the “inotropic response of atria (isometric tension)” value in data set [4] is “no further inotropic response”. In addition, the “change in LV dP/dtmax” value in [5] (control animals, isoproterenol infusion) is reported as “progressive increases”. In addition, in data set [5] (doses greater than 1 nanogram), the “effect on blood pressure” value was “significant lowering of blood pressure”. Further, the “left ventricular responses to isoproterenol” value in data set [6] (TGMini27 mice versus controls) is listed as “markedly enhanced”. Also, the “mean LV dP/dtmax (maximum contractility)” value in data set [6] (TGMini27 mice) is 10,821 mm Hg per sec; in [6] (TGβK12 mice), 6457 mm Hg per sec. Moreover, the results for the “mean LV dP/dtmin (maximum LV relaxation)” value in [6] (TGMini27 mice) and in [6] (TGβK12 mice) were −8071 mm Hg per second and −4350 mm Hg per second, respectively. The “inotropic and chronotropic responses to isoproterenol” value in data set [6] (TGβK12 animals versus controls) is “significantly reduced”.
In turn, “βARK1-(495-689) Minigene (from UniProt P21146 495-689)” gave a stimulation of rhodopsin phosphorylation upon addition of Gβγ (~10 pmoles), heart extracts from TGMini27 mice (fold over basal) in data set [7] of 2.16.

B1: βARK1-(495-689) Minigene: coding sequence for the last 194 amino acids of bovine βARK1; expressed soluble protein, in vivo βARK inhibitor (protein)
chain: GIKLLDSDQELYRNFPLTISERWQQEVAETVFDTINAETDRLEARKKTKNKQLGHEEDYALGKDCIMHGYMSKMGNPFLTQWQRRYFYLFPNRLEWRGEGEAPQSLLTMEEIQSVEETQIKERKCLLLKIRGGKQFVLQCDSDPELVQWKKELRDAYREAQQLVQRVPKMKNKPRSPVVELSKVPLIQRGSANGL
For B1, in data set [6] (TGMini27 mice, baseline), the “baseline LV dP/dtmax, LV dP/dtmin and LV systolic pressure compared to control animals” value is on record as “statistically elevated”. Moreover, in data set [8], the “stimulation of rhodopsin phosphorylation by Gβγ” value came to 2.16±0.12 fold over basal.

B2: myocardial βARK (protein)
chain: MADLEAVLADVSYLMAMEKSKATPAARASKKILLPEPSIRSVMQKYLEDRGEVTFEKIFSQKLGYLLFRDFCLNHLEEAKPLVEFYEEIKKYEKLETEEERVVRSREIFDSYIMKELLACSHPFSKNATEHVQGHLVKKQVPPDLFQPYIEEICQNLRGDVFQKFIESDKFTRFCQWKNVELNIHLTMNDFSVHRIIGRGGFGEVYGCRKADTGKMYAMKCLDKKRIKMKQGETLALNERIMLSLVSTGDCPFIVCMSYAFHTPDKLSFILDLMNGGDLHYHLSQHGVFSEADMRFYAAEIILGLEHMHNRFVVYRDLKPANILLDEHGHVRISDLGLACDFSKKRPHASVGTHGYMAPEVLQKGVAYDSSADWFSLGCMLFKLLRGHSPFRQHKTKDKHEIDRMTLTMAVELPDSFSPELRSLLEGLLQRDVNRRLGCLGRGAQEVKESPFFRSLDWQMVFLQKYPPPLIPPRGEVNAADAFDIGSFDEEDTKGIKLLDSDQELYRNFPLTISERWQQEVAETVFDTINAETDRLEARKKAKNKQLGHEEDYALGKDCIVHGYMSKMGNPFLTQWQRRYFYLFPNRLEWRGEGEAPQSLLTMEEIQSVEETQIKERKCLLLKIRGGKQFVLQCDSDPELVQWKKELRDAYREAQQLVQRVPKMKNKPRSPVVELSKVPLIQRGSANGL
As to B2, in [9], the “stimulation of rhodopsin phosphorylation upon addition of Gβγ (~10 pmoles), control heart extracts” value was 3.02±0.31 fold over basal, n=5.
